Structures can show the parent of a compound that is named as a salt.
Assays:
[1] = system: Streptococcus sanguis G9B, S. mutans Ingbritt and Actinomyces viscosus T14 V; assay: Adherence assay: inhibition of initial adherence of bacteria to saliva-coated hydroxyapatite beads; format: cell-based; details: 50% inhibition of bacterial adherence to saliva-coated hydroxyapatite (HA) beads, determined graphically; surfactant dissolved in water; 37° C.; read-out: 50% Inhibition Concentration
Text: S. sanguis G9B adheres well to saliva-coated hydroxyapatite. This attachment, in vivo, occurs within minutes. As plaque matures, the percentage of S. sanguis decreases, but its actual numbers remain high. In vivo and in vitro studies have shown S. sanguis to interact with other oral bacteria including S. mutans and Actinomyces viscosus. S. mutans has also been implicated as a cause of dental caries. Stock cultures were kept both lyophillized and frozen in Brain Heart Infusion Broth (BHI, Difco Laboratories) at -70° C.; the latter being used to inoculate starter cultures. After overnight incubation at 37° C, a 0.5% inoculum was used to inoculate 100 ml of BHI which was subsequently incubated 20 hours at 37° C. The cells were radioactivately labeled by adding tritiated thymidine (methyl-3H) to a final specific activity of 2 μCi/ml. After incubation, the cells were harvested by centrifugation (16,320× g, 15 minutes, 4° C.), washed three times with buffered KCl (2 mM potassium phosphate buffer, 1 mM CaCl2, and 5 mM KCl, pH 6.0) (Ref. 8), and resuspended to a turbidity of 300 Klett units (Klett-Summerson colorimeter; blue, #47 filter). This bacterial stock cell suspension was then diluted with buffered KCl to produce a series of cell suspensions ranging from 1.6 to 300 Klett units. Duplicate 50 ul aliquots of each cell suspension were counted in Aquasol-2 to determine their specific activities.
A. viscosus T14 V was grown for 48 hours at 37° C. under anaerobic conditions in tryptic soy broth (TSB) containing glucose.
Whole, paraffin-stimulated saliva was collected into ice-chilled tubes and clarified by centrifugation ([…], 15 minutes, 4° C.). The supernatant fluids were removed and aliquots were stored frozen at -20° C. until used. A pool of saliva from several individuals was used routinely; and was collected after a 10 hour fast with no food or oral hygiene on the morning of collection.
Spheroidal hydroxyapatite beads (manufactured by BDH Chemicals, Poole, England and obtained from Gallard-Schlessinger Co., Carle Place, NY) were distributed into a 12×75 mm polystyrene test tube (Walter Sarstedt, Inc., Princeton, N.J.) and mixed with either 1 ml of saliva or buffered KCl for 1.5 hours at ambient temperature with rotation (20 rpm). Each tube contained 40±2 mg of HA beads, distributed using a calibrated stainless steel ladle.
The cells were radioactively labelled by addition of 1.5 μCi/ml methyl-^3 H thymidine to the cell suspension media. The hydroxyapatite (HA) beads were coated with either a surfactant or a control or saliva and rotated for 30 minutes at ambient temperature. The excess agent or saliva was removed by washing with buffer. Radioactively-labelled cells suspended in either buffer or varying concentrations of the surfactant were added to the beads. The beads and cells were incubated at 37° C., 10 minutes for the streptococcal strains and 15 minutes for the actinomycete, after which the beads were washed to remove the unbound cells and the radioactivity bound to them was determined by scintillation counting. S. mutans Ingbritt was also assayed for sucrose-mediated adherence by addition of 1% sucrose to the cells and surfactant mixture. The concentration to effect 50% inhibition of bacterial adherence to the HA beads was determined graphically.
Several surfactant agents according to the invention dissolved in water were employed in the assay.

glucosyl transferase = assay: Assay for the inhibition of glucosyl transferase activity (14C-sucrose incorporation into glucan); format: biochemical; details: 50% inhibition of glucosyl transferase activity; 0.05M sodium acetate buffer, pH 5.5, 37° C.; read-out: 50% Inhibition Concentration
Method: An assay for the inhibition of glucosyl transferase activity was developed wherein the enzyme was incubated for 10 minutes with varying concentrations of the surfactant in 0.05M sodium acetate buffer, pH 5.5 at 37° C., with agitation. The reaction was then started by adding the remainder of the assay mixture (to a final volume of 450 mcl) consisting of: 2.5 μCi uniformly-labelled 14C -sucrose, 1% unlabelled sucrose, sodium fluoride and Dextran T10 in acetate buffer. Samples were removed at timed intervals, spotted to filters and the filters were treated with methanol. Radioactivity incorporated into glucan was plotted versus time as compared to a control preparation. By this procedure the concentration of test reagent necessary to achieve 50% inhibition of glucosyl transferase activity was determined.

Question: `CCCCCCCCCCCCCCCC(=O)N(C)CCS(=O)(=O)O` [Surfactant 1, N--methyl-N--palmitoyltaurine, sodium salt] was tested. Which IC50 [1] did it give?
Answer: 250 µM

Question: And the IC50 (glucosyl transferase)?
Answer: 1000 µM

Question: How did the IC50 [1] turn out when “Cocamidopropylhydroxysultaine, potassium salt [Surfactant 5]” was run?
Answer: 25000 µM

Question: “Cocamidopropylhydroxysultaine [Surfactant 4]” was tested. Which IC50 [1] did it give?
Answer: 15000 µM

Question: With `CCCCCCCC/C=C\CCCCCCCC(=O)N(C)CCS(=O)(=O)O` [Surfactant 2, N--methyl-N--oleolytaurine sodium salt] as the molecule, how does the IC50 [1] read?
Answer: 350 µM

Question: And the IC50 (glucosyl transferase)?
Answer: 1000 µM

Question: “N--methyl-N--cocoyltaurine sodium salt [Surfactant 3]” was tested. Which IC50 [1] did it give?
Answer: 300 µM

Question: What about the IC50 (glucosyl transferase) of the same molecule?
Answer: 1000 µM

Question: “Cocoylisethionate, sodium salt [Surfactant 6]” was tested. Which IC50 [1] did it give?
Answer: 100 µM

— patent publication US4828849A, “Surfactant inhibition of dental plaque” (Warner-Lambert Company, priority 1988, dated 1989)
